According to paper PMC3530194 (Bioorganic & medicinal chemistry letters, 2012):

Legend:
[1] = test system: LS174T indicator cells; type: cell-based; conditions: human cells (LS174T), over the first 12 hours; Fig. 3A
[2] = type: in vitro ADME, bovine
[3] = cited from earlier work
[4] = type: in vitro ADME, bovine; conditions: after 24 hours of serum pretreatment; Fig. 2D
[5] = test system: hereditary inclusion body myopathy mouse model; conditions: cited from earlier work
[6] = Fig. 2E; for surface expression of azido-modified sialic acids: after 24 hours of FBS pre-treatment; for loss of surface azido-sialic acid signal: first four hours of FBS treatment

| Structure (SMILES) | increased sialic acid production compared among analogs [1] | surface expression of azido-modified sialic acids [6] | loss of surface azido-sialic acid signal [6] | also measured |
| --- | --- | --- | --- | --- |
| CCCC(=O)OC1O[C@H](CO)[C@@H](OC(=O)CCC)[C@H](OC(=O)CCC)[C@@H]1NC(C)=O (stereo partly shown) [1,3,4-O-Bu3ManNAc] | statistically identical levels | – | – | reduction in analog-enhanced sialic acid production ([2]; after four hours of serum treatment, Fig. 2C): only a relatively minor reduction; side effects such as cytotoxicity [3]: negligible |
| CCCC(=O)OC[C@H]1OC(O)[C@@H](NC(C)=O)[C@@H](OC(=O)CCC)[C@@H]1OC(=O)CCC (stereo partly shown) [3,4,6-O-Bu3ManNAc] | statistically identical levels | – | – | loss of analog-enhanced cell growth inhibition [4]: complete reversal |
| CC(=O)N[C@@H]1C(OC(C)=O)O[C@H](COC(C)=O)[C@@H](OC(C)=O)[C@@H]1OC(C)=O (stereo partly shown) [Ac4ManNAc, reference compound] | – | – | – | serum inactivation of analog, read as sialic acid production in indicator cells ([2]; FBS (100% serum) pre-incubation, Fig. 2A): refractory to serum inactivation; time of peak sialic acid production after administration [5]: peaked as soon as four hours after administration |
| CC(=O)OC[C@H]1OC(OC(C)=O)[C@@H](NC(=O)CN=[N+]=[N-])[C@@H](OC(C)=O)[C@@H]1OC(C)=O (stereo partly shown) [Ac4ManNAz, reference compound] | – | reduction, but not complete reversal | refractory to a loss of signal | – |
| CCCC(=O)OCC1OC(OC(=O)CCC)C(NC(C)=O)[C@@H](OC(=O)CCC)[C@@H]1OC(=O)CCC (stereo partly shown) [Bu4ManNAc] | statistically identical levels | – | – | reversion of analog-enhanced sialic acid production in indicator cells ([2]; lower concentrations of FBS (10% or 25%), Fig. 2B): did not result in a statistically significant reversion |
| CCCC(=O)OC[C@H]1OC(OC(=O)CCC)[C@@H](NC(=O)CN=[N+]=[N-])[C@@H](OC(=O)CCC)[C@@H]1OC(=O)CCC (stereo partly shown) [Bu4ManNAz] | – | reduction, but not complete reversal | refractory to a loss of signal | – |
